How the values were obtained:
[1] = target: GDP-loaded KRAS G12D (Homo sapiens (Human), UniProt P01116, G12D); test: KRAS G12D (GDP) biochemical assay (TR-FRET probe displacement); assay type: binding; conditions: 2 hours
Method in brief: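 Compound pre-incubated 30 min with GDP-loaded KRAS G12D in 50 mM Hepes pH 7.4, 150 mM NaCl, 5 mM MgCl2, 0.005% Tween-20, then Eu-streptavidin and TR-FRET probe added. After 2 h at room temperature, TR-FRET ratio read; IC50 is 50% ratio decrease, sigmoidal fit.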

[2] = system: GP2D (KRAS G12D) cells; test: 2D cell viability assay (CellTiter-Glo); assay type: cell-based; conditions: 4 days
Method in brief: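 GP2D (KRAS G12D) cells, 1000/well in RPMI + 10% FBS, were plated onto compound (1:3 DMSO series) and grown 4 days at 37 °C, 5% CO2 in 2D. CellTiter-Glo luminescence was read; EC50 is the concentration giving 50% signal decrease, from sigmoidal fit.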

[3] = system: AsPC-1 (KRAS G12D) cells; test: 3D cell viability assay (spheroids, CellTiter-Glo 3D); assay type: cell-based; conditions: AsPC-1 cells, 3D spheroids, 4 days
Method in brief: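 AsPC-1 cells (1000/well) in DMEM with 10% FBS formed spheroids over 3 days at 37 °C in ultra-low attachment plates, then were treated with 1:3 serial dilutions for 4 days. Viability read by CellTiter-Glo 3D luminescence; EC50 as concentration giving 50% signal decrease, sigmoidal fit.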

GDP-loaded KRAS G12D, sequence (P01116-2 other isoform, or with tags, fused parts or gaps G12D): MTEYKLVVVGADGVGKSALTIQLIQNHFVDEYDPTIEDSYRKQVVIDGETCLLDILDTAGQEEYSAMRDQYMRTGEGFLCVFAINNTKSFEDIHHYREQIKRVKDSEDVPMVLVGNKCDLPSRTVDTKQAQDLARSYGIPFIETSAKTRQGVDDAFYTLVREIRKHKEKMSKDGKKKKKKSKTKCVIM

Structure (SMILES)	IC50 [1] [nM]	EC50 ([2]; GP2d, 96 h) [nM]	EC50 ([3]; Homo sapiens, ASPC1, 96 h) [nM]	EC50 [2] [nM]	EC50 [3] [nM]
C#Cc1c(F)ccc2cc(O)cc(-c3nc4c5c(nc(OC[C@@]67CCCN6C[C@H](F)C7)nc5c3F)N3C[C@H]5CC[C@H](N5)[C@@H]3[C@@H](CC)C4)c12 [Example 92, 4-((5S,5aS,6S,9R)-5-ethyl-1-fluoro-12-(((2R,7aS)-2-fluorotetrahydro-1H-pyrrolizin-7a(5H)-yl)methoxy)-4,5,5a,6,7,8,9,10-octahydro-3,10a,11,13,14-pentaaza-6,9-methanonaphtho[1,8-ab]heptalen-2-yl)-5-ethynyl-6-fluoronaphthalen-2-ol]	1.9	17.3	52	–	–
C#Cc1c(F)ccc2cccc(-c3nc4c5c(nc(OC[C@@]67CCCN6C[C@H](F)C7)nc5c3F)N3C[C@H]5CC[C@H](N5)[C@H]3C[C@H]4C)c12 [Example 95, (4R,5aS,6S,9R)-2-(8-ethynyl-7-fluoronaphthalen-1-yl)-1-fluoro-12-(((2R,7aS)-2-fluorotetrahydro-11H-pyrrolizin-7a(5H)-yl)methoxy)-4-methyl-4,5,5a,6,7,8,9,10-octahydro-3,10a,11,13,14-pentaaza-6,9-methanonaphtho[1,8-ab]heptalene]	0.6	31.9	200	–	–
C#Cc1c(F)ccc2cc(O)cc(-c3nc4c5c(nc(OC[C@@]67CCCN6C[C@H](F)C7)nc5c3F)N3C[C@H]5CC[C@H](N5)[C@H]3CC4(F)F)c12 [Example 97, 5-ethynyl-6-fluoro-4-((5aR,6S,9R)-1,4,4-trifluoro-12-(((2R,7aS)-2-fluorotetrahydro-1H-pyrrolizin-7a(5H)-yl)methoxy)-4,5,5a,6,7,8,9,10-octahydro-3,10a,11,13,14-pentaaza-6,9-methanonaphtho[1,8-ab]heptalen-2-yl)naphthalen-2-ol]	0.2	7.7	55	–	–
Oc1cc(-c2nc3c4c(nc(OC[C@@]56CCCN5C[C@@]5(CC5(F)F)C6)nc4c2F)N2C[C@H]4CC[C@H](N4)[C@H]2CC3)c2c(OC(F)(F)F)c(F)ccc2c1 [Example 99, 4-((5aR,6S,9R)-12-(((1S,7a'S)-2,2-difluorodihydro-1′H,3′H-spiro[cyclopropane-1,2′-pyrrolizin]-7a′(5′H)-yl)methoxy)-1-fluoro-4,5,5a,6,7,8,9,10-octahydro-3,10a,11,13,14-pentaaza[6,9]methanonaphtho[1,8-ab]heptalen-2-yl)-6-fluoro-5-(trifluoromethoxy)naphthalen-2-ol]	0.6	7.4	110	–	–
Oc1cc(-c2nc3c4c(nc(OCC5(CN6CCC(OC(F)(F)F)CC6)CC5)nc4c2F)N2C[C@H]4CC[C@H](N4)[C@H]2CC3)c2c(OC(F)(F)F)c(F)ccc2c1 [Example 102, 6-fluoro-4-((5aR,6S,9R)-1-fluoro-12-((1-((4-(trifluoromethoxy)piperidin-1-yl)methyl)cyclopropyl)methoxy)-4,5,5a,6,7,8,9,10-octahydro-3,10a,11,13,14-pentaaza-6,9-methanonaphtho[1,8-ab]heptalen-2-yl)-5-(trifluoromethoxy)naphthalen-2-ol]	3.3	39.5	680	–	–
C#Cc1c(F)ccc2cc(O)cc(-c3nc4c5c(nc(OC[C@@]67CCCN6[C@H](COc6cccc(S(F)(F)(F)(F)F)c6)CC7)nc5c3F)N3C[C@H]5CC[C@H](N5)[C@H]3CC4)c12 [Example 104, 5-ethynyl-6-fluoro-4-((5aR,6S,9R)-1-fluoro-12-(((3S,7aS)-3-((3-(pentafluoro-λ6-sulfaneyl)phenoxy)methyl)tetrahydro-1H-pyrrolizin-7a(5H)-yl)methoxy)-4,5,5a,6,7,8,9,10-octahydro-3,10a,11,13,14-pentaaza-6,9-methanonaphtho[1,8-ab]heptalen-2-yl)naphthalen-2-ol]	0.8	8.7	53	–	–
C#Cc1c(F)ccc2cc(O)cc(-c3nc4c5c(nc(OCC6(CN7CCC(OC(F)(F)F)CC7)CC6)nc5c3F)N3C[C@H]5CC[C@H](N5)[C@H]3CC4)c12 [Example 106, 5-ethynyl-6-fluoro-4-((5aR,6S,9R)-1-fluoro-12-((1-((4-(trifluoromethoxy)piperidin-1-yl)methyl)cyclopropyl)methoxy)-4,5,5a,6,7,8,9,10-octahydro-3,10a,11,13,14-pentaaza-6,9-methanonaphtho[1,8-ab]heptalen-2-yl)naphthalen-2-ol]	0.2	1.9	8.2	–	–
C#Cc1c(F)ccc2cc(O)cc(-c3nc4c5c(nc(OC[C@@]67CCCN6[C@H](COC(C)(C(F)(F)F)C(F)(F)F)CC7)nc5c3F)N3C[C@H]5CC[C@H](N5)[C@H]3CC4)c12 [Example 109]	0.1	1.2	0.8	–	–
C#Cc1c(F)ccc2cc(O)cc(-c3nc4c5c(nc(OC[C@@]67CCCN6[C@H](COC(C6CC6)C(F)(F)F)CC7)nc5c3F)N3C[C@H]5CC[C@H](N5)[C@H]3CC4)c12 (stereo partly drawn) [Example 110, 4-((5aR,6S,9R)-12-(((3S,7aS)-3-((1-cyclopropyl-2,2,2-trifluoroethoxy)methyl)tetrahydro-1H-pyrrolizin-7a(5H)-yl)methoxy)-1-fluoro-4,5,5a,6,7,8,9,10-octahydro-3,10a,11,13,14-pentaaza-6,9-methanonaphtho[1,8-ab]heptalen-2-yl)-5-ethynyl-6-fluoronaphthalen-2-ol]	0.3	–	–	36.1	51
C#Cc1c(F)ccc2cccc(-c3nc4c5c(nc(OC[C@@]67CCCN6[C@H](COC(C6CC6)C(F)(F)F)CC7)nc5c3F)N3C[C@H]5CC[C@H](N5)[C@H]3CC4)c12 (stereo partly drawn) [Example 111, (5aR,6S,9R)-12-(((3S,7aS)-3-((1-cyclopropyl-2,2,2-trifluoroethoxy)methyl)tetrahydro-1H-pyrrolizin-7a(5H)-yl)methoxy)-2-(8-ethynyl-7-fluoronaphthalen-1-yl)-1-fluoro-4,5,5a,6,7,8,9,10-octahydro-3,10a,11,13,14-pentaaza-6,9-methanonaphtho[1,8-ab]heptalene]	0.7	69.9	360	–	–
C#Cc1c(F)ccc2cccc(-c3nc4c5c(nc(OC[C@@]67CCCN6[C@H](COC(C)(C(F)(F)F)C(F)(F)F)CC7)nc5c3F)N3C[C@H]5CC[C@H](N5)[C@H]3CC4)c12 [Example 112, (5aR,6S,9R)-2-(8-ethynyl-7-fluoronaphthalen-1-yl)-1-fluoro-12-(((3S,7aS)-3-(((1,1,1,3,3,3-hexafluoro-2-methylpropan-2-yl)oxy)methyl)tetrahydro-1H-pyrrolizin-7a(5H)-yl)methoxy)-4,5,5a,6,7,8,9,10-octahydro-3,10a,11,13,14-pentaaza-6,9-methanonaphtho[1,8-ab]heptalene]	0.3	41	270	–	–
C#Cc1c(F)ccc2cccc(-c3nc4c5c(nc(OC[C@@]67C[C@@H](F)CN6CC6(CC6)C7)nc5c3F)N3C[C@H]5CC[C@H](N5)[C@H]3CC4)c12 [Example 113, (5aR,6S,9R)-2-(8-ethynyl-7-fluoronaphthalen-1-yl)-1-fluoro-12-(((6′R,7a′R)-6′-fluorodihydro-1′H,3′H-spiro[cyclopropane-1,2′-pyrrolizin]-7a′(5′H)-yl)methoxy)-4,5,5a,6,7,8,9,10-octahydro-3,10a,11,13,14-pentaaza-6,9-methanonaphtho[1,8-ab]heptalene]	0.2	7.3	57	–	–
C#Cc1c(F)ccc2cccc(-c3nc4c5c(nc(OC[C@@]67CCCN6[C@H](COC(C)(C(F)(F)F)C(F)(F)F)CC7)nc5c3F)N3C[C@H]5CC[C@H](N5)[C@H]3CCC4)c12 [Example 115, (6aR,7S,10R)-2-(8-ethynyl-7-fluoronaphthalen-1-yl)-1-fluoro-13-(((3S,7aS)-3-(((1,1,1,3,3,3-hexafluoro-2-methylpropan-2-yl)oxy)methyl)tetrahydro-1H-pyrrolizin-7a(5H)-yl)methoxy)-5,6,6a,7,8,9,10,11-octahydro-4H-3,11a,12,14,15-pentaaza-7,10-methanocyclohepta[4,5]cycloocta[1,2,3-de]naphthalene]	0.1	11.5	100	–	–
C#Cc1c(F)ccc2cccc(-c3nc4c5c(nc(OC[C@@]67CCCN6C[C@H](F)C7)nc5c3F)N3C[C@H]5CC[C@H](N5)[C@H]3[C@H](C)O4)c12 [Example 116, (5S,5aS,6S,9R)-2-(8-ethynyl-7-fluoronaphthalen-1-yl)-1-fluoro-12-(((2R,7aS)-2-fluorotetrahydro-1H-pyrrolizin-7a(5H)-yl)methoxy)-5-methyl-5a,6,7,8,9,10-hexahydro-5H-4-oxa-3,10a,11,13,14-pentaaza-6,9-methanonaphtho[1,8-ab]heptalene]	0.6	6	25	–	–
C#Cc1c(F)ccc2cccc(-c3nc4c5c(nc(OC[C@@]67CCCN6[C@H](COC(C)(C)C)CC7)nc5c3F)N3C[C@H]5CC[C@H](N5)[C@H]3CC4)c12 [Example 119, (5aR,6S,9R)-12-(((3S,7aS)-3-(tert-butoxymethyl)tetrahydro-1H-pyrrolizin-7a(5H)-yl)methoxy)-2-(8-ethynyl-7-fluoronaphthalen-1-yl)-1-fluoro-4,5,5a,6,7,8,9,10-octahydro-3,10a,11,13,14-pentaaza-6,9-methanonaphtho[1,8-ab]heptalene]	2.4	125	390	–	–

Source: patent US20230339981A1, “KRAS G12D MODULATING COMPOUNDS” (priority 2022, published 2023)
